Experimental findings from patent publication US20170037028A1 (BAYER PHARMA AKTIENGESELLSCHAFT, priority 2013, published 2017) are described below.

pIC50: −log10 of the molar value.

The target in the test is T1, GLUT1 (Homo sapiens, UniProt P11166).
T1 sequence (P11166 1-492): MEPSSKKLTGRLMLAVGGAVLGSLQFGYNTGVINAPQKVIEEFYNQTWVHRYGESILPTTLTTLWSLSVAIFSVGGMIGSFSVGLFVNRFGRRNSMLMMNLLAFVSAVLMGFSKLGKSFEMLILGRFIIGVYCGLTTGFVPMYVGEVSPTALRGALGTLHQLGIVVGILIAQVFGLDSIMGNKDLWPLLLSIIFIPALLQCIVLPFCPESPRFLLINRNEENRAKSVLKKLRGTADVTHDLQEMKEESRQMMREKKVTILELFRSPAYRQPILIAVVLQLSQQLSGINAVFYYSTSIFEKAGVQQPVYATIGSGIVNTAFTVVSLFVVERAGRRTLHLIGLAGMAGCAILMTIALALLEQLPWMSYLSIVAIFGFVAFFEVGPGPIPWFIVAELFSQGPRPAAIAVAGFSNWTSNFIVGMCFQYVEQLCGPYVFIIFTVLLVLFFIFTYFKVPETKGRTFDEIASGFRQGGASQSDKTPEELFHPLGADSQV
Nature of the test: Indirect measurement of GLUT1 activity by quantification of intracellular ATP levels (glucose induced ATP increase). To be noted: read-out: IC50 regarding glucose induced ATP increase (GLUT1 inhibition). The arrangement: endogenous in cells; host or cells: DLD1 or CHO-K1. It is filed as cell-based. An outline of the steps:
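DLD1 or CHO-K1 cells were starved overnight in glucose-free medium with 1% FCS, then combined with an oxidative phosphorylation inhibitor. GLUT1 activity was read as glucose-induced ATP increase, GLUT2 as fructose-induced. Intracellular ATP was quantified by CellTiter-Glo luminescence.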
`Cc1nn(Cc2ccc(C(=O)NCCN3CCCCC3)cc2)c(C)c1NC(=O)c1cc(C(F)(F)F)nc2ccc(Br)cc12` [Example 1150]: the negative-log IC50 (pIC50) was 6.89.

Regarding `Cc1c(NC(=O)c2cc(C(F)(F)F)nc3cc(F)c(F)cc23)c(C(F)(F)F)nn1Cc1ccc(F)cc1F` [Example 210, N-[1-(2,4-difluorobenzyl)-5-methyl-3-(trifluoromethyl)-1H-pyrazol-4-yl]-6,7-difluoro-2-(trifluoromethyl)quinoline-4-carboxamide], the pIC50 is 6.07.

With `Cc1ccc2c(C(=O)Nc3c(C)nn(Cc4ccc(F)cc4)c3C)cc(C)nc2c1` [Example 1278], the pIC50 is 5.41.

In the case of `COc1ccc(Cn2nc(C(F)(F)F)c(NC(=O)c3cc(C(N)=O)nc4cc(F)c(Cl)cc34)c2C)cn1` [Example 281, 6-chloro-7-fluoro-N^4-{1-[(6-methoxypyridin-3-yl)methyl]-5-methyl-3-(trifluoromethyl)-1H-pyrazol-4-yl}quinoline-2,4-dicarboxamide], the pIC50 is 8.89.

As to `Cc1nn(Cc2ccccc2C(F)(F)F)c(C)c1NC(=O)c1cc(C(F)(F)F)nc2c(Cl)cc(Cl)cc12` [Example 1299], the pIC50 is 4.95.

With `C=CCNC(=O)c1ccc(Cn2nc(C)c(NC(=O)c3cc(C(F)(F)F)nc4ccc(Br)cc34)c2C)cc1` [Example 1018], the negative logarithm of the IC50 (pIC50) is 8.72.

For `Cc1cc(C(=O)Nc2c(C)nn(Cc3ccc(F)cc3)c2C)c2ccc(Br)cc2n1` [Example 1277], the pIC50 is 5.41.

For `Cc1c(NC(=O)c2cc(C(N)=O)nc3ccccc23)c(C(F)(F)F)nn1Cc1ncco1` [Example 1540], the negative logarithm of the IC50 (pIC50) was 6.56.

Regarding `Cc1cc(C(=O)Nc2c(C)nn(Cc3ccc(F)cc3)c2C)c2ccccc2n1` [Example 105, N-[1-(4-fluorobenzyl)-3,5-dimethyl-1H-pyrazol-4-yl]-2-methylquinoline-4-carboxamide], the pIC50 was 6.28.

Take `COc1cc(C(=O)Nc2c(C)nn(Cc3ccc(F)c(F)c3)c2C)c2ccccc2n1` [Example 55, N-[1-(3,4-difluorobenzyl)-3,5-dimethyl-1H-pyrazol-4-yl]-2-methoxyquinoline-4-carboxamide]: the pIC50 is 7.23.

As for `COc1ccccc1Cn1nc(C)c(NC(=O)c2cc(C(F)(F)F)nc3ccc(Br)cc23)c1C` [Example 1274], the pIC50 is 5.47.

Turning to `Cc1nn(Cc2ccc(F)cc2)c(C)c1NC(=O)c1cc(C#N)nc2ccccc12` [Example 78, 2-cyano-N-[1-(4-fluorobenzyl)-3,5-dimethyl-1H-pyrazol-4-yl]quinoline-4-carboxamide], the negative-log IC50 (pIC50) was 6.65.

On to `CC(=O)c1ccc(Cn2nc(C)c(NC(=O)c3cc(C(N)=O)nc4ccccc34)c2C)cc1` [Example 1607], for which the pIC50 was 8.46.

Take `Cc1nn(Cc2ccc(C(=O)NCC(F)(F)F)cc2)c(C)c1NC(=O)c1cc(C(F)(F)F)nc2ccc(Br)cc12` [Example 1059]: the negative logarithm of the IC50 (pIC50) is 7.81.

As for `Cc1ccc2nc(C)cc(C(=O)Nc3c(C)nn(Cc4ccccn4)c3C)c2c1` [Example 1261], the pIC50 is 5.64.

Take `COC(=O)c1coc(Cn2nc(C(F)(F)F)c(NC(=O)c3cc(C(N)=O)nc4cc(F)ccc34)c2C)n1` [Example 1681]: the pIC50 is 7.06.

Take `Cc1nn(Cc2c(F)cccc2F)c(C)c1NC(=O)c1cc(C(N)=O)nc2cc(F)c(Cl)cc12` [Example 1634]: the pIC50 is 8.66.

Consider `COc1cccc(CNC(=O)c2ccc(Cn3nc(C)c(NC(=O)c4cc(C(F)(F)F)nc5ccc(Br)cc45)c3C)cc2)c1` [Example 1132], for which the pIC50 is 7.05.

In the case of `COc1ccc(Cn2nc(C)c(NC(=O)c3cc(C(F)(F)F)nc4c(Cl)cc(Cl)cc34)c2C)cc1` [Example 8, 6,8-dichloro-N-[1-(4-methoxybenzyl)-3,5-dimethyl-1H-pyrazol-4-yl]-2-(trifluoromethyl)quinoline-4-carboxamide], the negative-log IC50 (pIC50) is 8.27.

`Cc1nn(Cc2cccc(S(C)(=O)=O)c2)c(C)c1NC(=O)c1cc(C(N)=O)nc2cccc(F)c12` [Example 1641]: the pIC50 is 6.77.

The pIC50 is −log10 of the IC50, conventionally taken in molar units.
